The values below come from patent publication US20150353495A1 (PORTOLA PHARMACEUTICALS, INC., priority 2010, published 2015).

In general, IC50 refers to the concentration that inhibits the measured activity by half.

What all share (type): biochemical
For assay [1], the target named is T1, JAK1 (Homo sapiens, UniProt P23458).
T1 construct: 5 μl of catalytic domain recombinant Kinase enzyme+Tyr peptide substrate (Invitrogen, CA); purchased Invitrogen
Kind of assay: Z'-LYTE kinase assay JAK1. As to the method: (§1) JAK and TYK2 tyrosine phosphorylation activity is measured using the Z′-LYTE™ Technology developed by Invitrogen Corporation (Carlsbad, Calif.). For JAK1, JAK2 and JAK3 the Z′-LYTE™ Kinase Assay Kit-Tyr6 Peptide (part number PV4122) was used. For TYK2 the Z′-LYTE™ Kinase Assay Kit-Tyr6 Peptide (part number PV3192) was used. The Z′-LYTE™ biochemical assay employs a fluorescence resonance energy transfer (FRET) coupled-enzyme format and is based on the differential sensitivity of phosphorylated and non-phosphorylated peptides to proteolitic cleavage. The assay uses a synthetic peptide substrate that is labelled with a donor fluorophore (coumarin) and an acceptor fluorophore (fluorescein) that make up a FRET pair. In the primary reaction (the Kinase Reaction), the kinase transfers the γ-phosphate of ATP to a single tyrosine residue on the substrate, while the presence of a kinase inhibitor in the primary reaction suppresses phosphorylation. In the secondary reaction (the Development Reaction), a site-specific protease (the Development Reagent) is added. The development buffer quenches the Kinase Reaction, while the protease recognizes and cleaves non-phosphorylated Z′-LYTE™ peptide substrate. Cleavage disrupts FRET between the donor and acceptor fluorophores on the non-phosphoryleted substrate, while uncleaved, phosphorylated substrate maintains FRET.
(§2) To test the ability of candidate molecules to inhibit JAK tyrosine phosphorylation activity, molecules are reconstituted in 100% DMSO and serially diluted 1:10 in polypropylene v-bottom microtiter plates. The candidate molecules are then diluted 1:25 into kinase buffer and 2.5 μl transferred into duplicate wells of a 384 well low volume black microtiter assay plate (Corning, USA). The final DMSO concentration in the assay is 1%. The kinase reaction contains 2.5 μl of a candidate molecule, 5 μl of catalytic domain recombinant Kinase enzyme+Tyr peptide substrate (Invitrogen, CA) and 2.5 μl ATP (Invitrogen, CA). The kinase reaction is allowed to procede for 1 hour at room temperature. The protease reaction is initiated by the addition of 5 μl Development Reagent (Invitrogen, CA). After 1 hour incubation at room temperature the fluorescence is measured using a FlexStation plate reader (Molecular Devices, Sunnyvale, Calif.).

For assay [2], the target named is T2, JAK2 (Homo sapiens, UniProt O60674).
T2 construct: 5 μl of catalytic domain recombinant Kinase enzyme+Tyr peptide substrate (Invitrogen, CA); purchased Invitrogen
In words: Z'-LYTE kinase assay JAK2. As to the method:
as §1, §2

For assay [3], the target named is T3, JAK3 (Homo sapiens, UniProt P52333).
T3 construct: 5 μl of catalytic domain recombinant Kinase enzyme+Tyr peptide substrate (Invitrogen, CA); purchased Invitrogen
Kind of assay: Z'-LYTE kinase assay JAK3. As to the method: as §1, §2

T3 sequence (P52333 822-1111 limits assumed): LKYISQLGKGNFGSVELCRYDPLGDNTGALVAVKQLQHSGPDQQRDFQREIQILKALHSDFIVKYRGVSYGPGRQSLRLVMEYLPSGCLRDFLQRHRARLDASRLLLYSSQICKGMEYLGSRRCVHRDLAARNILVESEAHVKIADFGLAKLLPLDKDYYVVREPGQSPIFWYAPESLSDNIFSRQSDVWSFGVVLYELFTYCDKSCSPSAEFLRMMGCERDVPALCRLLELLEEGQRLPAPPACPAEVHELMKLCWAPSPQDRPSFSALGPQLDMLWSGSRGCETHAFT
T1 sequence (P23458 875-1153 limits assumed): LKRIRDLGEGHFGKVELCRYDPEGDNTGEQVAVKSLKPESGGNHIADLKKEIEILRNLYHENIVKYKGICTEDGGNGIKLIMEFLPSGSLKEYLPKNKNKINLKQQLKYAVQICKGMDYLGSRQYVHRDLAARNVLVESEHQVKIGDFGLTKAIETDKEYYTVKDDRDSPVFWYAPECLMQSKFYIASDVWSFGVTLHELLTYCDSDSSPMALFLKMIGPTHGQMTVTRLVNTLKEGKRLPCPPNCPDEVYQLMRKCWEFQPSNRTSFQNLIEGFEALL
T2 sequence (O60674 849-1124 limits assumed): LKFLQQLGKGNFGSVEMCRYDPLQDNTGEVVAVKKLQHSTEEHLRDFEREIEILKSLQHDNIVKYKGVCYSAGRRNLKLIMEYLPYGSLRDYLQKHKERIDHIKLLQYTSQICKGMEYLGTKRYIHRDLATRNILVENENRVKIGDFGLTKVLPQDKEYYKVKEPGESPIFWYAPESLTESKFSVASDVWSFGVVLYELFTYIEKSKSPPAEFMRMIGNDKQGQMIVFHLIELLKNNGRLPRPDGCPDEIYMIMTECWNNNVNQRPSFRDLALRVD

Regarding `CN(C)C(=O)c1ccc(Nc2cc(NCc3ccccc3)c(C(=O)N(C)C)cn2)cc1` [Example 30, 4-(benzylamino)-6-(4-(dimethylcarbamoyl)phenylamino)-N,N-dimethylnicotinamide], the IC50 in assay [1], in assay [2] and in assay [3] was over 1000 nM each time.
Take `COc1ccc(Nc2cc(NCC3CCCC3)c(C(N)=O)cn2)cc1` [Example 32, 4-(cyclopentylmethylamino)-6-(4-methoxyphenylamino)nicotinamide]: the IC50 in assay [1] is over 1000 nM; in assay [2], over 1000 nM; in assay [3], 100 to 1000 nM.
`COc1ccc(Nc2cc(Nc3ccc(C)cc3)c(C(N)=O)cn2)cc1` [Example 33, 6-(4-methoxyphenylamino)-4-(p-tolylamino)nicotinamide]: the IC50 in assay [1], in assay [2] and in assay [3] was over 1000 nM throughout.
Take `COc1ccc(Nc2cc(Nc3ccc(OC)cc3)c(C(N)=O)cn2)cc1` [Example 34, 4,6-bis(4-methoxyphenylamino)nicotinamide]: the half-inhibitory concentration (IC50) in assay [1], in assay [2] and in assay [3] was over 1000 nM each time.
In the case of `COc1ccc(Nc2cc(NCC3CCN(C(C)=O)CC3)c(C(N)=O)cn2)cc1` [Example 35, 4-((1-acetylpiperidin-4-yl)methylamino)-6-(4-methoxyphenylamino)nicotinamide], the IC50 in assay [1], in assay [2] and in assay [3] was over 1000 nM each time.
`COc1ccc(Nc2cc(N[C@H]3CCCN(C(C)=O)C3)c(C(N)=O)cn2)cc1` [Example 36, (S)-4-(1-acetylpiperidin-3-ylamino)-6-(4-methoxyphenylamino)nicotinamide]: the IC50 in assay [1], in assay [2] and in assay [3] was over 1000 nM throughout.
Take `COc1ccc(Nc2cc(N[C@@H]3CCCN(C(C)=O)C3)c(C(N)=O)cn2)cc1` [Example 37, (R)-4-(1-acetylpiperidin-3-ylamino)-6-(4-methoxyphenylamino)nicotinamide]: the IC50 in assay [1], in assay [2] and in assay [3] was over 1000 nM each time.
With `NC(=O)c1cnc(Nc2ccc(C(=O)N3CCOCC3)cc2)cc1NCC1CCCC1` [Example 42, 4-(cyclopentylmethylamino)-6-(4-(morpholine-4-carbonyl)phenylamino)nicotinamide], the results for the IC50 in assay [1], in assay [2] and in assay [3] were 100 to 1000 nM, 100 to 1000 nM and 10 to 100 nM, respectively.
Consider `CC(=O)N1CCC(CNc2cc(Nc3ccc(C(=O)N4CCCC4)cc3)ncc2C(N)=O)CC1` [Example 43, 4-((1-acetylpiperidin-4-yl)methylamino)-6-(4-(pyrrolidine-1-carbonyl)phenylamino)nicotinamide], for which the IC50 in assay [1] was over 1000 nM; in assay [2], over 1000 nM; in assay [3], 100 to 1000 nM.
Regarding `CC(=O)N1CCC(CNc2cc(Nc3ccc(C(=O)N4CCOCC4)cc3)ncc2C(N)=O)CC1` [Example 44, 4-((1-acetylpiperidin-4-yl)methylamino)-6-(4-(morpholine-4-carbonyl)phenylamino)nicotinamide], the IC50 in assay [1], in assay [2] and in assay [3] was over 1000 nM throughout.
Regarding `NC(=O)c1cnc(Nc2ccc(S(=O)(=O)N3CCC3)cc2)cc1NCc1ccccc1` [Example 47, 6-(4-(azetidin-1-ylsulfonyl)phenylamino)-4-(benzylamino)nicotinamide], the IC50 in assay [1] was over 1000 nM; in assay [2], over 1000 nM; in assay [3] it was 100 to 1000 nM.
Take `NC(=O)c1cnc(Nc2ccc(C(=O)N3CCC3)cc2)cc1NCC1CCCC1` [Example 48, 6-(4-(azetidine-1-carbonyl)phenylamino)-4-(cyclopentylmethylamino)nicotinamide]: the results for the IC50 in assay [1], in assay [2] and in assay [3] were 100 to 1000 nM, 100 to 1000 nM and 10 to 100 nM, respectively.
Take `NC(=O)c1cnc(Nc2ccc(S(=O)(=O)N3CCC3)cc2)cc1NCC1CCCC1` [Example 49, 6-(4-(azetidin-1-ylsulfonyl)phenylamino)-4-(cyclopentylmethylamino)nicotinamide]: the IC50 in assay [1] was over 1000 nM; in assay [2] it was over 1000 nM; in assay [3], 100 to 1000 nM.
For `CC(=O)N1CCC(CNc2cc(Nc3ccc(C(=O)N4CCC4)cc3)ncc2C(N)=O)CC1` [Example 50, 4-((1-acetylpiperidin-4-yl)methylamino)-6-(4-(azetidine-1-carbonyl)phenylamino)nicotinamide], the IC50 in assay [1], in assay [2] and in assay [3] was over 1000 nM each time.
With `COCC(=O)N1CCC[C@@H](CNc2cc(Nc3ccc(OC)cc3)ncc2C(N)=O)C1` [Example 51, (S)-4-((1-(2-methoxyacetyl)piperidin-3-yl)methylamino)-6-(4-methoxyphenylamino)nicotinamide], the IC50 was over 1000 nM in assay [1], over 1000 nM in assay [2] and 100 to 1000 nM in assay [3].
Take `COC(=O)N1CCC[C@@H](CNc2cc(Nc3ccc(OC)cc3)ncc2C(N)=O)C1` [Example 52, (S)-methyl 3-((5-carbamoyl-2-(4-methoxyphenylamino)pyridin-4-ylamino)methyl)piperidine-1-carboxylate]: the IC50 in assay [1] was over 1000 nM; in assay [2], over 1000 nM; in assay [3] it was 100 to 1000 nM.
For `COc1ccc(Nc2cc(NC[C@@H]3CCCN(C(=O)N(C)C)C3)c(C(N)=O)cn2)cc1` [Example 53, (S)-4-((1-(dimethylcarbamoyl)piperidin-3-yl)methylamino)-6-(4-methoxyphenylamino)nicotinamide], the values for the IC50 in assay [1], in assay [2] and in assay [3] were over 1000 nM, over 1000 nM and 100 to 1000 nM, respectively.
For `COc1ccc(Nc2cc(NC[C@H]3CCCN(C(C)=O)C3)c(C(N)=O)cn2)cc1` [Example 54], the IC50 in assay [1] was over 1000 nM; in assay [2], 100 to 1000 nM; in assay [3], 10 to 100 nM.
As for `COCC(=O)N1CCC[C@H](CNc2cc(Nc3ccc(OC)cc3)ncc2C(N)=O)C1` [Example 55, (R)-4-((1-(2-methoxyacetyl)piperidin-3-yl)methylamino)-6-(4-methoxyphenylamino)nicotinamide], the results for the IC50 in assay [1], in assay [2] and in assay [3] were over 1000 nM, over 1000 nM and 10 to 100 nM, respectively.
For the molecule `COC(=O)N1CCC[C@H](CNc2cc(Nc3ccc(OC)cc3)ncc2C(N)=O)C1` [Example 56, (R)-methyl 3-((5-carbamoyl-2-(4-methoxyphenylamino)pyridin-4-ylamino)methyl)piperidine-1-carboxylate], the IC50 was over 1000 nM in assay [1], over 1000 nM in assay [2] and 100 to 1000 nM in assay [3].
For the molecule `COc1ccc(Nc2cc(NC[C@H]3CCCN(S(C)(=O)=O)C3)c(C(N)=O)cn2)cc1` [Example 57, (R)-6-(4-methoxyphenylamino)-4-((1-(methylsulfonyl)piperidin-3-yl)methylamino)nicotinamide], the IC50 in assay [1] is over 1000 nM; in assay [2], 100 to 1000 nM; in assay [3] it was 10 to 100 nM.
Take `CN1C(=O)COc2ccc(Nc3cc(NCc4ccccc4)c(C(N)=O)cn3)cc21` [Example 85, 4-(benzylamino)-6-(4-methyl-3-oxo-3,4-dihydro-2H-benzo[b][1,4]oxazin-6-ylamino)nicotinamide]: the figures for the IC50 in assay [1], in assay [2] and in assay [3] were over 1000 nM, over 1000 nM and 10 to 100 nM, respectively.
In the case of `NC(=O)c1cnc(Nc2ccc3ncccc3c2)cc1NCc1ccccc1` [Example 86, 4-(benzylamino)-6-(quinolin-6-ylamino)nicotinamide], the concentration for half-maximal inhibition (IC50) was over 1000 nM in assay [1], over 1000 nM in assay [2] and 10 to 100 nM in assay [3].
As to `NC(=O)c1cnc(Nc2ccc3cccnc3c2)cc1NCc1ccccc1` [Example 87, 4-(benzylamino)-6-(quinolin-7-ylamino)nicotinamide], the values for the IC50 in assay [1], in assay [2] and in assay [3] were over 1000 nM, over 1000 nM and 100 to 1000 nM, respectively.
Turning to `NC(=O)c1cnc(Nc2ccc3cnccc3c2)cc1NCc1ccccc1` [Example 88, 4-(benzylamino)-6-(isoquinolin-6-ylamino)nicotinamide], the IC50 is over 1000 nM in assay [1], over 1000 nM in assay [2] and 10 to 100 nM in assay [3].
For the molecule `NC(=O)c1cnc(Nc2ccc3ccncc3c2)cc1NCc1ccccc1` [Example 89, 4-(benzylamino)-6-(isoquinolin-7-ylamino)nicotinamide], the IC50 is over 1000 nM in assay [1], over 1000 nM in assay [2] and 100 to 1000 nM in assay [3].
With `NC(=O)c1cnc(Nc2ccc3ncsc3c2)cc1NCc1ccccc1` [Example 90, 6-(benzo[d]thiazol-6-ylamino)-4-(benzylamino)nicotinamide], the IC50 in assay [1] is over 1000 nM; in assay [2], over 1000 nM; in assay [3], 10 to 100 nM.
